Key:
[1] = biological target: F. tularensis ParE (full length) (Francisella tularensis, UniProt A0A0J9WZF0); experiment: biochemical
[2] = biological target: E. coli GyrB (full length) (Escherichia coli, UniProt P0AES6); experiment: biochemical

Sequence of F. tularensis ParE (full length) (A0A0J9WZF0 whole entry, looked up): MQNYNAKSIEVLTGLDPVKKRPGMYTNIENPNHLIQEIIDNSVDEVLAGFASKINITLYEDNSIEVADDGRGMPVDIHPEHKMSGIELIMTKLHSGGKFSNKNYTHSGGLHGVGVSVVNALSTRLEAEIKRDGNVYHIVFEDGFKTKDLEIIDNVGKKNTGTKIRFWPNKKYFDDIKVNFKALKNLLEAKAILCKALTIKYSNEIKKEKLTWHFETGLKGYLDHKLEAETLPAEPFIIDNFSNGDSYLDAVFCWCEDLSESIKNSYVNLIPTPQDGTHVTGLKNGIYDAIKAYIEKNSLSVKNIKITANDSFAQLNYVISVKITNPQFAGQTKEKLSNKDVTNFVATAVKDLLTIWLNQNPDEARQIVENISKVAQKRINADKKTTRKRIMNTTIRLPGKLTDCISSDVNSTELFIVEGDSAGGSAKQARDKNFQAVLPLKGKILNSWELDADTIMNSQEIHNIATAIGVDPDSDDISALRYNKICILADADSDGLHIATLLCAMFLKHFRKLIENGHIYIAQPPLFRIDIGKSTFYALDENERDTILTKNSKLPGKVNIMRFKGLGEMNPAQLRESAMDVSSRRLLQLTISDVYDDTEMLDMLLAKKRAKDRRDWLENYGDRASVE

Compound | Ki [1] [nM] | Ki [2] [nM]
CNc1cc(F)cc2c1[nH]c1nc(Oc3cnc(C)nc3)nc(N3C[C@H]4CCN[C@H]4C3)c12 [C3, 6-fluoro-4-((3aR,6aR)-hexahydropyrrolo[3,4-b]pyrrol-5(1H)-yl)-N-methyl-2-((2-methylpyrimidin-5-yl)oxy)-9H-pyrimido[4,5-b]indol-8-amine] | < 0.4 | 
CNc1cc(F)cc2c1[nH]c1nc(Oc3cnc(C)nc3)nc(N3C[C@@H]4[C@H](N)C[C@]4(C)C3)c12 [C4, 4-((1S,5R,6R)-6-amino-1-methyl-3-azabicyclo[3.2.0]heptan-3-yl)-6-fluoro-N-methyl-2-((2-methylpyrimidin-5-yl)oxy)-9H-pyrimido[4,5-b]indol-8-amine] | 0.8 | 0.3
